Assay results reported in patent US10736968B2, “Cellular signalling inhibitors, their formulations and methods thereof” (INVICTUS ONCOLOGY PVT. LTD., priority 2016, dated 2020).

Target: T1, CSF1R (Mus musculus, UniProt P09581)
T1 construct: endogenous in cells
T1 sequence (P09581 20-977): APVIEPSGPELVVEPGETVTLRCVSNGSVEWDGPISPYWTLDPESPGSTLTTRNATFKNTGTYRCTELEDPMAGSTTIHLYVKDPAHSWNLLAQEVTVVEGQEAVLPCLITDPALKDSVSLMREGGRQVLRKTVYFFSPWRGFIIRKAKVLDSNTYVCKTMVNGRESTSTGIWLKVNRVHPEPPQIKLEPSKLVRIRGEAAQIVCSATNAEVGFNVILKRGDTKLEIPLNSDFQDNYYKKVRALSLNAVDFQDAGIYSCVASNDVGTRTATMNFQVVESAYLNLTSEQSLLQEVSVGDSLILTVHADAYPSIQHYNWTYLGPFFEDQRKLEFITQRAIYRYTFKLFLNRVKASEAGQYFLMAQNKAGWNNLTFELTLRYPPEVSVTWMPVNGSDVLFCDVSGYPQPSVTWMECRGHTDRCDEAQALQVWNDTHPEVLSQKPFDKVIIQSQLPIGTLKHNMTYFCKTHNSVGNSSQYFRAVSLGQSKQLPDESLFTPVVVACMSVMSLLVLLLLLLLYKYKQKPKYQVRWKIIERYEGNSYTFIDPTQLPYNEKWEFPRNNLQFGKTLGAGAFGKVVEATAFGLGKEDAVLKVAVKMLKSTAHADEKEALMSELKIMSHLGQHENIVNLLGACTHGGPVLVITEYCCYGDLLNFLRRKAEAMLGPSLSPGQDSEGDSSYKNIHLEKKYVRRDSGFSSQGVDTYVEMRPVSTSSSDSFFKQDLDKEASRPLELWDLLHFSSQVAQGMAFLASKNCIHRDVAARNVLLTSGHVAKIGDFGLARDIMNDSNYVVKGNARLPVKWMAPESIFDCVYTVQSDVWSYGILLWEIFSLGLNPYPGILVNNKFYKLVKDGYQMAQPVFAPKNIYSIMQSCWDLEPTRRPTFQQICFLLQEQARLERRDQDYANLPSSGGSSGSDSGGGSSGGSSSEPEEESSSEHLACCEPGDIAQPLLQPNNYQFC
Assay: CSF1R phosphorylation in RAW264.7 cells after CSF-1 stimulation (Western blot)
Format: cell-based
Details: 67 nM, different time points, then CSF1 10 ng/ml for 20 min
Experimental: FIG. 2. (a) Expression of phospho-CSF1R in RAW264.7 cells at different time points post-treatment with mCSF. (b-c) Treatment with either BLZ-945 (a current gold standard small molecule inhibitor of CSF1R) or AK750 (the formulated form of BLN101) across different time points followed by CSF-1 (10 ng/mL) stimulation for 20 minutes. After stimulation the cells were washed with cold PBS and the cell lysates were collected.
Activity Studies of Compound of Formula I • Efficacy of BLN101 vs BLZ945 on the ability to inhibit CSF1R in vitro is studied. RAW264.7 cells are treated with BLZ945 (67 nM) or BLN101 (67 nM) for different time points, at the end of which the cells were exposed to CSF1 (10 ng/ml) for 20 min. The cells were then lysed and analyzed for phosphorylated CSF1R levels. […] Efficacy of BLN101 (in formulation AK750) vs BLZ945 on increase in iNOS expression in vitro is studied. It is observed that exposure to Tumor Conditioned Media over 24 h decreases INOS levels. Measurement of the expression of iNOS in RAW264.7 cells at different time points after treatment with B-16-tumour conditioned media followed by BLZ-945 or BLN101 (as AK750 formulation) treatment across different time points. […] At different time-points, the cells are harvested and analyzed the population for M1 (MHCII+, CD86+, CD80+) or M2 (CD206+) markers using fluorescence activated cell sorting (FIG. 5d). […]

In the case of `CNC(=O)c1cc(Oc2ccc3nc(NC4CCCC[C@H]4OC(=O)CCC(=O)O[C@H]4CC[C@@]5(C)C(=CC[C@H]6[C@@H]7CC[C@H](C(C)CCCC(C)C)[C@@]7(C)CC[C@@H]65)C4)sc3c2)ccn1` (stereo in doubt) [BLN101], the “inhibition of CSF1R (phosphorylated CSF1R levels)” value is reported as “sustained and statistically significantly greater inhibition of CSF1R as compared with BLZ945” and the “inhibition of CSF1R (phosphorylated CSF1R levels)” value (listed as BLZ101) is reported as “potent inhibitor of CSF1R”.
